Experimental findings from patent US8173654B2, “Triazolopyridazine compounds” (Janssen Pharmaceutica N.V., priority 2005, dated 2012) are described below.

pIC50: −log10 of the molar value.

The target in assay [1] is T1, c-Met (Homo sapiens, UniProt P08581). The experiment in a line: Cell based ELISA assay for HGF stimulated c-Met phosphorylation in S114 cells. Also noted: expressed in transfected cells; host or cells: S114 (murine NIH 3T3 derived). The settings on record: read-out: c-Met Cell ELISA IC-50. As for the experimental part: A cell based ELISA assay was developed to evaluate the ability of compounds to inhibit HGF stimulated c-Met phosphorylation in cells.
S114 cells were seeded to a 96 well tissue culture treated dish at a concentration of 5×10^4 per well. After a 16-20 hour incubation, culture medium was removed and replaced with serum free medium supplemented with 0.5% BSA. Test compound was then added and incubated with the cells for 60 minutes, followed by the addition of 1 μl HGF at […] for 15 minutes. […] Following another 1 hour incubation at room temperature the plates were washed three times with Delfia wash buffer (Perkin Elmer). After the final wash, […] of Delfia enhancer solution (Perkin Elmer) was added and allowed to incubate for 60 minutes. Plates were read on an LJL Analyst instrument (Molecular Devices; Sunnyvale, Calif.) with filter settings of 360 excitation, 620 emission, and 410 dichroic. IC50 values were calculated using Graphpad Prism software (Graphpad Software; San Diego, Calif.).
Target sequence in this assay (P08581 25-1390): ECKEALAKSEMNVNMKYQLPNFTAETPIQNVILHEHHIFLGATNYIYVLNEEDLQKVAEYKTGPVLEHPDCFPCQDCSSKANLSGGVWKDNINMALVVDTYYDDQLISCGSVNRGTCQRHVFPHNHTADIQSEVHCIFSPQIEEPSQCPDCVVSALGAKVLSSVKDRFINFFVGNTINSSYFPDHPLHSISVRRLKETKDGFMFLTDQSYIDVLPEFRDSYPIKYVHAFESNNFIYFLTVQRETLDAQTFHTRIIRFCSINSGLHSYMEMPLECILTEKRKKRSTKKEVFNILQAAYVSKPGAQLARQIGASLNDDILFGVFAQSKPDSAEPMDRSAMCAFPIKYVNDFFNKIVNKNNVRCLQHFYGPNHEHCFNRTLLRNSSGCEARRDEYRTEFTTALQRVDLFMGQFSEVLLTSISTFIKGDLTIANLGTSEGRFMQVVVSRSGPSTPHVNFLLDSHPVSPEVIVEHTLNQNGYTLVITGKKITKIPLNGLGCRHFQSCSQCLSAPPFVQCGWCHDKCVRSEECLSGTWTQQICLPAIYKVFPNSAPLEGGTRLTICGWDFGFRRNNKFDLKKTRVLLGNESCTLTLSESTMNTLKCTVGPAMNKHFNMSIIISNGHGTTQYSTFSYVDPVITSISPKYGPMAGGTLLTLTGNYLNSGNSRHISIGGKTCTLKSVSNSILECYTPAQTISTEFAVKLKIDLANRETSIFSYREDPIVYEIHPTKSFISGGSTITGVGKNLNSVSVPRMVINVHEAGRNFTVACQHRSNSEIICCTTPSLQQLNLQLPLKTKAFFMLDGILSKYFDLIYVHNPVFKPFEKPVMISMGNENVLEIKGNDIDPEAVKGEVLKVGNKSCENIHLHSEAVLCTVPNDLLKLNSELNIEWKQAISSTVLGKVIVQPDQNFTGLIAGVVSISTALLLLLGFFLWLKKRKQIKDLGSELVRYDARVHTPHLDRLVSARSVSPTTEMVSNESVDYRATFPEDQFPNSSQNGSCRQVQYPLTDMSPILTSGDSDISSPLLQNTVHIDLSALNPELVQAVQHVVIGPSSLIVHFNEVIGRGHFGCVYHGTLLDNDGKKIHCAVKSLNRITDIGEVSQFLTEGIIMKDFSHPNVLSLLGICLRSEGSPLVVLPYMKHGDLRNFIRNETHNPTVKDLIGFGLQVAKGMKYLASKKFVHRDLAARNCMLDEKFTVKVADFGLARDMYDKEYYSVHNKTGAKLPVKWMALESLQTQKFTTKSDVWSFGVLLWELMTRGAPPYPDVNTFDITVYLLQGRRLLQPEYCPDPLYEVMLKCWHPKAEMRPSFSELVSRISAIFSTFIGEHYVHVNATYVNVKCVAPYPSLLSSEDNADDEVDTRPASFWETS

Assay [2] concerns the target T1, c-Met. The assay can be described thus: Delfia autophosphorylation kinase assay on the c-Met. It counts as biochemical. Also noted: The purified His6 tagged cytoplasmic domain of c-Met was diluted to a concentration of 500 ng/ml; host or cells: Sf9 insect cells (baculovirus, pFastBacHTa). The settings on record: His6 tagged cytoplasmic domain of c-Met, 1 μM ATP; read-out: cMet Delfia autophos IC-50. How it is done: A DELFIA time resolved fluorescence assay was developed for screening of compounds that decreases the autophosphorylation thus the kinase activity of c-Met. The DELFIA assay is non-radioactive. The autophosphorylation of the c-Met is measured by an anti-phosphotyrosine antibody coupled to an Europium tag.
A major advantage of this format is that it allowed for the development of an autophosphorylation assay using Ni-chelate plates which bind the hexa-his tag on the recombinant Met kinase. The autophosphorylation assay allows one to use a known substrate, Met kinase itself, for the phosphorylation.
The assay procedure for screening is as follows. The purified His6 tagged cytoplasmic domain of c-Met was diluted to a concentration of 500 ng/ml in enzyme dilution buffer (50 mM Tris-HCl, pH8.0, 0.1% BSA) and dispensed to assay plates at a volume of 50 μl per well. Black opaque HisGrab Nickel coated 96 well plates (Pierce, Rockford, Ill.) were selected for use. Next, 2.5 μl of compound in 40% DMSO was added to test wells, 2.5 μl of 40% DMSO only was added to the negative control wells. The autophosphorylation reaction was initiated upon the addition of 50 μl of reaction buffer, 50 mM Tris-HCl, pH 8.0, 10 mM MgCl2, 0.1 mM Na3VO4, 1 mM DTT, 1 μM ATP. Plates were incubated at room temperature for 1 hour followed by 2 washes with 200 μl/well of PBS. Europium conjugated anti-phosphotyrosine antibody, Eu-PY20 from Perkin Elmer was diluted to 50 ng/ml in Delfia AB buffer (Perkin Elmer, Boston, Mass.), added to the 96 well assay plates at a volume of 100 μl/well, and incubated at room temperature for 2 hours. Assay plates were then washed 4 times each with 200 μl/well of Delfia wash buffer (Perkin Elmer). After the final wash 150 μl of Delfia Enhancement solution (Perkin Elmer) was added to each well of the assay plate and incubated at room temperature for 1 hour. Plates were read on an LJL Analyst instrument (Molecular Devices; Sunnyvale, Calif.) with filter settings of 360 excitation, 620 emission, and 410 dichroic. IC50 values were calculated using Graphpad Prism software (Graphpad Software; San Diego, Calif.).
Target sequence in this assay (P08581 956-1390 limits assumed): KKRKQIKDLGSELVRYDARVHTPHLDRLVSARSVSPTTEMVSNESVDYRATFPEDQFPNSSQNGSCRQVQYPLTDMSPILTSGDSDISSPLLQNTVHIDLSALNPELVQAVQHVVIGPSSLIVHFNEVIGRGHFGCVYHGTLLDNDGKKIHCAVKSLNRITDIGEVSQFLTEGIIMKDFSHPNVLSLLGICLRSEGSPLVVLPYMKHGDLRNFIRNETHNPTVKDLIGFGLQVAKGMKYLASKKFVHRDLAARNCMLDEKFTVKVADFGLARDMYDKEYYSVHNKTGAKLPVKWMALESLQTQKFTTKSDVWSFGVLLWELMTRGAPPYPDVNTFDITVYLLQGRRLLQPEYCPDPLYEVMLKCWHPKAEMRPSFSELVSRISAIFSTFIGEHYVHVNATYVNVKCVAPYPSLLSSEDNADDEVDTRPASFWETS

Consider `c1cnc2ccc(Cc3nnc4ccc(-c5ccncc5)nn34)cc2c1` [Example 6, 6-(6-Pyridin-4-yl-[1,2,4]triazolo[4,3-b]pyridazin-3-ylmethyl)-quinoline], for which the pIC50 at c-Met [1] is 6.95; on c-Met [2] it was 8.10.

On to `c1cc(-c2ccc3nnc(Cc4ccc5c(c4)CCO5)n3n2)ccn1` [Example 7, 3-(2,3-Dihydro-benzofuran-5-ylmethyl)-6-pyridin-4-yl-[1,2,4]triazolo[4,3-b]pyridazine], for which the results for the pIC50 at c-Met [1] and at c-Met [2] were 5.67 and 6.95, respectively.

Consider `CCCn1cc(-c2ccc3nnc(Cc4ccc5ncccc5c4)n3n2)cn1` [Example 9, 6-[6-(1-Propyl-1H-pyrazol-4-yl)-[1,2,4]triazolo[4,3-b]pyridazin-3-ylmethyl]-quinoline], for which the results for the pIC50 on c-Met [1] and at c-Met [2] were 7.32 and 8.80, respectively.

For the compound `c1cncc(-c2ccc3nnc(Cc4ccc5ncccc5c4)n3n2)c1` [Example 11, 6-(6-Pyridin-3-yl-[1,2,4]triazolo[4,3-b]pyridazin-3-ylmethyl)-quinoline], the pIC50 was 7.07 at c-Met [1] and 8.22 on c-Met [2].

Regarding `Nc1nc2ccc(Cc3nnc4ccc(-c5cccnc5)nn34)cc2s1` [Example 13, 6-(6-Pyridin-3-yl-[1,2,4]triazolo[4,3-b]pyridazin-3-ylmethyl)-benzothiazol-2-ylamine], the pIC50 on c-Met [1] is 6.67; at c-Met [2], 7.82.

On to `CS(=O)(=O)n1cc(-c2ccc3nnc(Cc4ccc5ncccc5c4)n3n2)cn1` [Example 15, 6-[6-(1-Methanesulfonyl-1H-pyrazol-4-yl)-[1,2,4]triazolo[4,3-b]pyridazin-3-ylmethyl]-quinoline], for which the pIC50 at c-Met [1] was 7.06; at c-Met [2], 8.70.

`COCCn1cc(-c2ccc3nnc(Cc4ccc5ncccc5c4)n3n2)cn1` [Example 16, 6-{6-[1-(2-Methoxy-ethyl)-1H-pyrazol-4-yl]-[1,2,4]triazolo[4,3-b]pyridazin-3-ylmethyl}-quinoline]: the pIC50 was 6.53 at c-Met [1] and 8.05 on c-Met [2].

As for `Oc1ccc(Cc2nnc3ccc(-c4nccs4)nn23)cc1` [Example 18, 4-(6-Thiazol-2-yl-[1,2,4]triazolo[4,3-b]pyridazin-3-ylmethyl)-phenol], the pIC50 on c-Met [1] was 7.07; on c-Met [2], 8.00.

On to `CCCc1ncc(-c2ccc3nnc(Cc4ccc5ncccc5c4)n3n2)s1` [Example 20, 6-[6-(2-Propyl-thiazol-5-yl)-[1,2,4]triazolo[4,3-b]pyridazin-3-ylmethyl]-quinoline], for which the results for the pIC50 at c-Met [1] and on c-Met [2] were 8.15 and 9.00, respectively.

As for `c1csc(-c2ccc3nnc(Cc4ccc5c(c4)CCO5)n3n2)c1` [Example 22, 3-(2,3-Dihydro-benzofuran-5-ylmethyl)-6-thiophen-2-yl-[1,2,4]triazolo[4,3-b]pyridazine], the pIC50 on c-Met [1] is 8.05; at c-Met [2], 7.82.

As for `Cc1ccsc1-c1ccc2nnc(Cc3ccc4c(c3)CCO4)n2n1` [Example 23, 3-(2,3-Dihydro-benzofuran-5-ylmethyl)-6-(3-methyl-thiophen-2-yl)-[1,2,4]triazolo[4,3-b]pyridazine], the results for the pIC50 on c-Met [1] and on c-Met [2] were 6.95 and 7.39, respectively.

For `COc1ccc(Cc2nnc3ccc(-c4cccs4)nn23)cc1` [Example 25, 3-(4-Methoxy-benzyl)-6-thiophen-2-yl-[1,2,4]triazolo[4,3-b]pyridazine], the results for the pIC50 on c-Met [1] and at c-Met [2] were 6.32 and 7.39, respectively.

For the compound `COc1ccc(Cc2nnc3ccc(-c4cccs4)nn23)cn1` [Example 31, 3-(6-Methoxy-pyridin-3-ylmethyl)-6-thiophen-2-yl-[1,2,4]triazolo[4,3-b]pyridazine], the pIC50 at c-Met [1] is 5.62; at c-Met [2], 7.11.

On to `c1csc(-c2ccc3nnc(Cc4ccncc4)n3n2)c1` [Example 33, 3-Pyridin-4-ylmethyl-6-thiophen-2-yl-[1,2,4]triazolo[4,3-b]pyridazine], for which the pIC50 at c-Met [1] is 5.00; on c-Met [2] it was 7.02.
